The results in this text go back to patent US9790201B2, “Piperidine and azepine derivatives as prokineticin receptor modulators” (TAKEDA PHARMACEUTICAL COMPANY LIMITED, priority 2013, dated 2017).

One may read the IC50 as the concentration that gives 50% inhibition.

The experiment addresses human PKR1 receptors (Homo sapiens (Human), UniProt Q8TCW9). Kind of experiment: PKR1 antagonist assay: block of PK1-mediated intracellular calcium release (FLIPR Tetra). The format is cell-based. Particulars: RBL2H3 cells expressing human PKR1; stimulation with PK1 at EC80; calcium fluorescence. As for the experimental part:
Prokineticin receptor 1 (PKR1) antagonists may be functionally assessed by measurement of change in intracellular calcium levels induced by Gq mediated increase in inositol triphosphate (IP3) levels. The ability of a compound to block the intracellular release of calcium mediated by PK1 in RBL2H3 cells expressing human PKR1 receptors is determined as a measure of the compound's antagonist activity in vitro.
Approximately 10,000 cells per assay well are seeded in normal culture medium in a 384 well plate (Corning). Twenty-four hours after seeding, the cells are loaded with a calcium sensitive fluorescent dye by replacing the culture medium with assay buffer (1× Hanks buffered saline, 25 mM HEPES, 0.1% w/v fatty acid free BSA (bovine serum albumin), pH 7.4) containing 1 mM probenecid and 1× Calcium 5 Reagent (Molecular Devices). Cells are incubated at 37° C. for 1 hour to allow for dye uptake.
To test for antagonist activity, test compounds at a final concentration range between 0.32 nM-10 μM (diluted in assay buffer) are added to the assay wells and allowed to incubate for 10 minutes prior to stimulation with PK1. After incubation with test compounds the assay plate is placed in a FLIPR Tetra (Molecular Devices) and PK1 (diluted in assay buffer) is added at the determined EC80 concentration (final). Ligand-dependent changes in intracellular calcium levels are determined by measuring changes in fluorescence of the dye at […] following excitation at 485 nm.

human PKR1 receptors, sequence (Q8TCW9 whole entry): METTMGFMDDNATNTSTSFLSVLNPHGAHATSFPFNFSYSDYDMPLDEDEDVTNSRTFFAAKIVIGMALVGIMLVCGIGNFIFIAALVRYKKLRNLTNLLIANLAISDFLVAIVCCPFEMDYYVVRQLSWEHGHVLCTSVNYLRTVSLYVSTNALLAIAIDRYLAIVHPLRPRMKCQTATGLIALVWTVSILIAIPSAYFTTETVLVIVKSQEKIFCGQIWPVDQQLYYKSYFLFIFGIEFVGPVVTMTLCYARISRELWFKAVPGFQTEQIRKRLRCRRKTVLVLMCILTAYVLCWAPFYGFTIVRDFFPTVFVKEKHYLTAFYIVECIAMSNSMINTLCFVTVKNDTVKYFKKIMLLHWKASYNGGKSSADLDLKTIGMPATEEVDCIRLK

On to `CNc1cc(C(=O)N2CCCC(c3ccc(Cl)cc3C(F)(F)F)C2)cnn1` (stereo not shown) [Example 76, 5-({3-[4-Chloro-2-(trifluoromethyl)phenyl]piperidin-1-yl}carbonyl)-N-methylpyridazin-3-amine], for which the half-maximal inhibitory concentration (IC50) was 80 nM.

Regarding `O=C(c1cnnc(N2CCC2)c1)N1CCCC(c2ccc(Cl)cc2C(F)(F)F)C1` (stereo not shown) [Example 77, 3-(Azetidin-1-yl)-5-({3-[4-chloro-2-(trifluoromethyl)phenyl]piperidin-1-yl}carbonyl)pyridazine], the IC50 amounted to 730 nM.

With `CNc1cc(C(=O)N2CCCC(c3ccc(C(F)(F)F)cc3OC)C2)cnn1` (stereo not shown) [Example 78, 5-({3-[2-Methoxy-4-(trifluoromethyl)phenyl]piperidin-1-yl}carbonyl)-N-methylpyridazin-3-amine], the half-maximal inhibitory concentration (IC50) came to 3000 nM.

For `CNc1cc(C(=O)N2CCCC(c3ccc(OC)cc3C)C2)cnn1` (stereo not shown) [Example 79, 5-{[3-(4-Methoxy-2-methylphenyl)piperidin-1-yl]carbonyl}-N-methylpyridazin-3-amine], the IC50 is 130 nM.

For the molecule `COc1ccc(C2CCCN(C(=O)c3cnnc(N(C)C)c3)C2)c(C)c1` (stereo not shown) [Example 80, 5-{[3-(4-Methoxy-2-methylphenyl)piperidin-1-yl]carbonyl}-N,N-dimethylpyridazin-3-amine], the half-inhibitory concentration (IC50) is 160 nM.

On to `CNc1cc(C(=O)N2CCCC(c3ccc(OC)cc3C(F)(F)F)C2)cnn1` (stereo not shown) [Example 81, 5-({3-[4-Methoxy-2-(trifluoromethyl)phenyl]piperidin-1-yl}carbonyl)-N-methylpyridazin-3-amine], for which the half-inhibitory concentration (IC50) is 130 nM.

`COc1ccc(C2CCCN(C(=O)c3cnnc(N(C)C)c3)C2)c(C(F)(F)F)c1` (stereo not shown) [Example 82, 5-({3-[4-Methoxy-2-(trifluoromethyl)phenyl]piperidin-1-yl}carbonyl)-N,N-dimethylpyridazin-3-amine]: the IC50 was found to be 210 nM.

Regarding `CCOc1cc(Cl)ccc1C1CCCN(C(=O)c2cnnc(NC)c2)C1` (stereo not shown) [Example 83, 5-{[3-(4-Chloro-2-ethoxyphenyl)piperidin-1-yl]carbonyl}-N-methylpyridazin-3-amine], the IC50 is 170 nM.

With `CCOc1cc(Cl)ccc1C1CCCN(C(=O)c2cnnc(N(C)C)c2)C1` (stereo not shown) [Example 84, 5-{[3-(4-Chloro-2-ethoxyphenyl)piperidin-1-yl]carbonyl}-N,N-dimethylpyridazin-3-amine], the half-inhibitory concentration (IC50) turned out to be 90 nM.

Consider `Cc1cc(C(=O)N2CCCC(c3ccc(Cl)cc3C)C2)cnn1` (stereo not shown) [Example 85, 5-{[3-(4-Chloro-2-methylphenyl)piperidin-1-yl]carbonyl}-3-methylpyridazine], for which the IC50 was 1140 nM.

With `Cc1cc(Cl)ccc1C1CCCN(C(=O)c2cn(C)nc2C)C1` (stereo not shown) [Example 87, 3-(4-Chloro-2-methylphenyl)-1-[(1,3-dimethyl-1H-pyrazol-4-yl)carbonyl]piperidine], the IC50 turned out to be 200 nM.

In the case of `Cc1nn(C)cc1C(=O)N1CCCC(c2ccc(Cl)cc2)C1` (stereo not shown) [Example 88, 3-(4-Chlorophenyl)-1-[(1,3-dimethyl-1H-pyrazol-4-yl)carbonyl]piperidine], the IC50 turned out to be 1820 nM.

Regarding `Cn1cc(C(=O)N2CCCC(c3ccc(Cl)cc3)C2)cn1` (stereo not shown) [Example 89, 3-(4-Chlorophenyl)-1-[(1-methyl-1H-pyrazol-4-yl)carbonyl]piperidine], the 50% inhibitory concentration (IC50) worked out at 1280 nM.

`CCn1cc(C(=O)N2CCCC(c3ccc(Cl)cc3)C2)cn1` (stereo not shown) [Example 90, 3-(4-Chlorophenyl)-1-[(1-ethyl-1H-pyrazol-4-yl)carbonyl]piperidine]: the IC50 was determined as 660 nM.

`CC(C)n1cc(C(=O)N2CCCC(c3ccc(Cl)cc3)C2)cn1` (stereo not shown) [Example 91, 3-(4-Chlorophenyl)-1-{[1-(propan-2-yl)-1H-pyrazol-4-yl]carbonyl}piperidine]: the IC50 was found to be 960 nM.

With `CCn1cc(C(=O)N2CCCC(c3ccc(Cl)cc3C)C2)cn1` (stereo not shown) [Example 92, 3-(4-Chloro-2-methylphenyl)-1-[(1-ethyl-1H-pyrazol-4-yl)carbonyl]piperidine], the IC50 is 110 nM.

As for `Cc1cc(Cl)ccc1C1CCCN(C(=O)c2cnn(C(C)C)c2)C1` (stereo not shown) [Example 93, 3-(4-Chloro-2-methylphenyl)-1-{[1-(propan-2-yl)-1H-pyrazol-4-yl]carbonyl}piperidine], the IC50 is 180 nM.

For `Cc1cc(Cl)ccc1C1CCCN(C(=O)c2cnn(C)c2)C1` (stereo not shown) [Example 94, 3-(4-Chloro-2-methylphenyl)-1-[(1-methyl-1H-pyrazol-4-yl)carbonyl]piperidine], the concentration for half-maximal inhibition (IC50) stood at 170 nM.

Turning to `Cc1cc(Cl)ccc1C1CCCN(C(=O)c2cnn(C)c2N)C1` (stereo not shown) [Example 95, 4-{[3-(4-Chloro-2-methylphenyl)piperidin-1-yl]carbonyl}-1-methyl-1H-pyrazol-5-amine], the IC50 came to 150 nM.

Regarding `O=C(c1cn[nH]c1)N1CCCC(c2ccc(Cl)cc2C(F)(F)F)C1` (stereo not shown) [Example 96, 3-[4-Chloro-2-(trifluoromethyl)phenyl]-1-[(1H-pyrazol-4-yl)carbonyl]piperidine], the IC50 stood at 2440 nM.

On to `Cn1cc(C(=O)N2CCCC(c3ccc(Cl)cc3C(F)(F)F)C2)cn1` (stereo not shown) [Example 97, 3-[4-Chloro-2-(trifluoromethyl)phenyl]-1-[(1-methyl-1H-pyrazol-4-yl)carbonyl]piperidine], for which the 50% inhibitory concentration (IC50) came out at 100 nM.

As for `CCn1cc(C(=O)N2CCCC(c3ccc(Cl)cc3C(F)(F)F)C2)cn1` (stereo not shown) [Example 98, 3-[4-Chloro-2-(trifluoromethyl)phenyl]-1-[(1-ethyl-1H-pyrazol-4-yl)carbonyl]piperidine], the IC50 was found to be 170 nM.

Consider `CC(C)n1cc(C(=O)N2CCCC(c3ccc(Cl)cc3C(F)(F)F)C2)cn1` (stereo not shown) [Example 99, 3-[4-Chloro-2-(trifluoromethyl)phenyl]-1-{[1-(propan-2-yl)-1H-pyrazol-4-yl]carbonyl}piperidine], for which the 50% inhibitory concentration (IC50) was found to be 330 nM.

In the case of `Cn1cc(C(=O)N2CCCC(c3ccc(Cl)cc3C(F)(F)F)C2)c(N)n1` (stereo not shown) [Example 100, 4-({3-[4-Chloro-2-(trifluoromethyl)phenyl]piperidin-1-yl}carbonyl)-1-methyl-1H-pyrazol-3-amine], the IC50 is 540 nM.

With `COc1ccc(C2CCCN(C(=O)c3cn(C)nc3C)C2)c(C)c1` (stereo not shown) [Example 101, 1-[(1,3-Dimethyl-1H-pyrazol-4-yl)carbonyl]-3-(4-methoxy-2-methylphenyl)piperidine], the IC50 is 1030 nM.

On to `COc1ccc(C2CCCN(C(=O)c3cn(C)nc3N)C2)c(C)c1` (stereo not shown) [Example 102, 4-{[3-(4-Methoxy-2-methylphenyl)piperidin-1-yl]carbonyl}-1-methyl-1H-pyrazol-3-amine], for which the IC50 worked out at 1540 nM.

On to `Cc1nn(C)cc1C(=O)N1CCCC(c2ccc(Cl)cc2C(F)(F)F)C1` (stereo not shown) [Example 103, 3-[4-Chloro-2-(trifluoromethyl)phenyl]-1-[(1,3-dimethyl-1H-pyrazol-4-yl)carbonyl]piperidine], for which the IC50 turned out to be 490 nM.

For `CN(C)c1cc(C(=O)N2C=C(c3ccc(Cl)cc3)CCC2)ccn1` [Example 104, 4-{[5-(4-Chlorophenyl)-1,2,3,4-tetrahydropyridin-1-yl]carbonyl}-N,N-dimethylpyridin-2-amine], the 50% inhibitory concentration (IC50) is 420 nM.

For `Cc1cc(Cl)ccc1C1=CN(C(=O)c2ccnc(N(C)C)c2)CCC1` [Example 105, 4-{[5-(4-Chloro-2-methylphenyl)-1,2,3,4-tetrahydropyridin-1-yl]carbonyl}-N,N-dimethylpyridin-2-amine], the IC50 came to 270 nM.

For the molecule `CN(C)c1cc(C(=O)N2C=C(c3ccc(Cl)cc3Cl)CCC2)ccn1` [Example 106, 4-{[5-(2,4-Dichlorophenyl)-1,2,3,4-tetrahydropyridin-1-yl]carbonyl}-N,N-dimethylpyridin-2-amine], the IC50 worked out at 1230 nM.

Consider `CN(C)c1cc(C(=O)N2CCCCC(c3ccccc3)C2)ccn1` (stereo not shown) [Example 107, N,N-Dimethyl-4-[(3-phenylazepan-1-yl)carbonyl]pyridin-2-amine], for which the concentration for half-maximal inhibition (IC50) came out at 2970 nM.

Turning to `CN(C)c1cc(C(=O)N2CCCCC(c3ccc(Cl)cc3)C2)ccn1` (stereo not shown) [Example 108, 4-{[3-(4-Chlorophenyl)azepan-1-yl]carbonyl}-N,N-dimethylpyridin-2-amine], the IC50 is 3230 nM.

For `COc1ccc(C2CCCCN(C(=O)c3ccnc(N(C)C)c3)C2)cc1` (stereo not shown) [Example 109, 4-{[3-(4-Methoxyphenyl)azepan-1-yl]carbonyl}-N,N-dimethylpyridin-2-amine], the concentration for half-maximal inhibition (IC50) came out at 960 nM.

Turning to `CNc1cc(C(=O)N2CCCCC(c3ccc(OC)cc3)C2)ccn1` (stereo not shown) [Example 110, 4-{[3-(4-Methoxyphenyl)azepan-1-yl]carbonyl}-N-methylpyridin-2-amine], the IC50 came to 450 nM.

Consider `CNc1cc(C(=O)N2CCCCC(c3ccc(Cl)cc3)C2)ccn1` (stereo not shown) [Example 111, 4-{[3-(4-Chlorophenyl)azepan-1-yl]carbonyl}-N-methylpyridin-2-amine], for which the half-inhibitory concentration (IC50) came to 430 nM.

On to `CNc1cc(C(=O)N2CCCCC(c3ccc(OC)cc3)C2)cnn1` (stereo not shown) [Example 112, 5-{[3-(4-Methoxyphenyl)azepan-1-yl]carbonyl}-N-methylpyridazin-3-amine], for which the IC50 is 1270 nM.

In the case of `CNc1cc(C(=O)N2CCCCC(c3ccc(Cl)cc3)C2)cnn1` (stereo not shown) [Example 113, 5-{[3-(4-Chlorophenyl)azepan-1-yl]carbonyl}-N-methylpyridazin-3-amine], the concentration for half-maximal inhibition (IC50) was found to be 930 nM.
